Data as given in EP4670722A1, “PROPHYLACTIC OR AMELIORATING AGENT FOR CELL AGING” (Kyowa Pharma Chemical Co., Ltd., priority 2023, dated 2024).

Assays:
[1] = test system: laminin; assay: Laminin secretion amount (ELISA) of tunicamycin-treated dermal fibroblasts; type: cell-based, Human; conditions: NB1RGB PDL of 30 or less, tunicamycin 0.3 µg/mL, 50 µg/mL to 200 µg/mL, 24 hours; recovery increased as content increased; Fig. 8
Experimental: Human normal dermal fibroblasts (NB1RGB) with a PDL of 30 or less were cultured using DMEM containing 10% FBS. The cultured cells were collected by trypsin treatment. The collected cells were seeded in a 24-well plate, and when they reached 100% confluence, tunicamycin at 0.3 µg/mL was added, and the culture supernatant was collected after 24 hours. A group was also prepared in which FBS-free DMEM medium containing the test sample (2'-fucosyllactose) at 50 µg/mL, 100 µg/mL, or 200 µg/mL was added simultaneously with tunicamycin, and the culture supernatant was collected after 24 hours. The culture supernatant was centrifuged, and the resulting supernatant was used as a sample. […] This total cell protein concentration was measured by the Bradford assay.
Human normal dermal fibroblasts with a PDL of 30 or less were cultured in the same manner as in Example 7-1, except that tunicamycin and the test sample were not added, and the culture supernatant was collected. […] This total cell protein concentration was measured by the Bradford assay.
An Enzyme-Linked Immunosorbent Assay (ELISA) method was performed using an antibody against laminin to measure the amount of laminin in the samples. […] After stopping the reaction, the absorbance at a measurement wavelength of 450 nm was measured using a microplate reader. […]

[2] = test system: Human normal epidermal keratinocytes (HaCaT); assay: Cell viability (Cell Counting Kit-8) of tunicamycin-treated epidermal keratinocytes; type: cell-based; conditions: tunicamycin 0.1 µg/mL, 50 µg/mL to 200 µg/mL, 24 hours, effect increased as content increased, Fig. 5
Experimental: Human normal epidermal keratinocytes (HaCaT) were cultured using DMEM containing 10% FBS. The cultured cells were collected by trypsin treatment. The collected cells were seeded in a 96-well plate, and when they reached 100% confluence, tunicamycin, an agent that induces endoplasmic reticulum stress, was added at 0.1 µg/mL, and the cells were cultured for 24 hours. A group was also prepared in which FBS-free DMEM medium containing a test sample (2'-fucosyllactose) at 50 µg/mL, 100 µg/mL, or 200 µg/mL was added simultaneously with tunicamycin, and cultured for 24 hours. After completion of culture, the viability of human normal epidermal keratinocytes was evaluated using Cell Counting Kit-8 (manufactured by Dojindo Laboratories). The measurement wavelength (As) was set to 450 nm, and the reference wavelength was set to 620 nm.
Human normal epidermal keratinocytes were cultured and the absorbance at a measurement wavelength of 450 nm was measured in the same manner as in Example 4-1, except that tunicamycin and the test sample were not added. The obtained absorbance was designated as Ab, and the cell viability represented by the above formula (1) was determined.

[3] = test system: GLS1; assay: GLS1 expression analysis (ELISA) in HUVEC after high glucose treatment; type: cell-based; conditions: human umbilical vein endothelial cells (HUVEC), 50 µg/mL to 1000 µg/mL, 24 hours; effect increased as content increased; Fig. 12
Experimental: Human umbilical vein endothelial cells (HUVEC) were cultured in DMEM + 10% FBS + 5 mM glucose (normal medium). The cultured cells were collected by trypsin treatment. The collected cells were seeded in a 10 cm dish and cultured for 24 hours in a 37°C, 5% CO2 incubator. Thereafter, a treatment of exposing the cells to DMEM + 10% FBS + 30 mM glucose (high glucose medium) for 10 hours and to normal medium for 14 hours was performed for 7 days. After 7 days, normal medium containing the test sample (2'-FL and lactose) at 50 µg/mL, 200 µg/mL, or 1000 µg/mL was added, and cultured for 24 hours in a 37°C, 5% CO2 incubator. The culture supernatant was removed, the cells were washed twice with PBS, and 0.20 mL of RIPA buffer was added to extract total protein. Protein in each protein extract was quantified by the Bradford assay.
Protein extracts were collected in the same manner as in [Example 10-1 B. Human gastric undifferentiated carcinoma cells (KKLS)], [Example 10-1 C. Mouse microglial cells (BV2)], [Example 10-1 D. Human gingival fibroblasts (Gin-1)], and [Example 10-1 E. Human umbilical vein endothelial cells (HUVEC)], respectively, except that a medium same as the above-mentioned medium but not containing the test sample was used instead of the medium containing the test sample, and protein in each protein extract was quantified by the Bradford assay. […]

With C[C@@H]1O[C@@H](O[C@H]2[C@H](O[C@H]3[C@H](O)[C@@H](O)C(O)O[C@@H]3CO)O[C@H](CO)[C@H](O)[C@@H]2O)[C@@H](O)[C@H](O)[C@@H]1O (stereo partly drawn) [2'-FL, 2'-fucosyllactose] the laminin secretion [1] was “restored laminin secretion”, the “endoplasmic reticulum stress (cell viability)” value [2] was “ameliorated endoplasmic reticulum stress” and the GLS1 expression [3] was “suppressed GLS1 expression”.
